# Measured values as given in article PMC4664966, “Discovery and characterization of novel inhibitors of the sodium-coupled citrate transporter (NaCT or SLC13A5)” (Scientific Reports, 2015).
# Entries after “also recorded” stand apart in the source; their conditions may differ.
# Legend:
# [1] = target: Adrenergic receptor, beta-2(ADRB2) (Homo sapiens, UniProt P07550); assay: Selectivity data (Table S1); type: binding
# [2] = tested on: Calcium channel, L-type; assay: Selectivity data (Table S1)
# [3] = target: Cytochrome P450 2C9 (CYP2C9) (Homo sapiens, UniProt P11712); assay: Selectivity data (Table S1); type: in vitro ADME
# [4] = target: CYP2C9 (Homo sapiens, UniProt P11712); assay: Selectivity data (Table S1); type: in vitro ADME; details: 3 µM
# [5] = Intra-/extracellular unbound concentration ratio (Kpuu) in human hepatocytes; type: in vitro ADME; details: cryopreserved hepatocytes, ratio of free intracellular and media concentration after 1 h incubation at 1 μM, geometric mean of 3 replicates ± SD
# Method: kpuu values were determined by measuring total cell and media concentrations corrected for their respective fraction unbound. Detailed methods to determine intra- and extracellular concentrations of compound in the HEKNaCT cells and human hepatocytes will be the subject of a separate manuscript that is under preparation. […]
# Intra- and extracellular concentrations of compound in cellular assays. kpuu values were determined by measuring total cell and media concentrations corrected for their respective […]
# fraction unbound. […]
# The solution was heated to reflux until the total volume was reduced to ~25 mL.
# Hexane (25 mL) was added and the mixture was brought back to reflux than allowed to slowly cool to room temperature. After standing at room temperature for 16 h, the resulting suspension was filtered and dried under high vacuum to yield (S)-2-(4-(tert-butyl)phenethyl)-2-hydroxysuccinic acid (3) as a white solid. The filtrate was allowed to stand at room temperature for 4 days. The solvent evaporated to ~15 mL and large, colorless crystals formed.
# X-ray analysis. Data collection was performed on a Bruker APEX diffractometer at room temperature. Data collection consisted of 3 omega scans and low angle and three at high angle; each with 0.5 step. In addition, 2 phi scans were collected to improve the quality of the […]
# [6] = tested on: mice fed a HFD; assay: Chronic treatment of mice fed a HFD (OGTT, hepatic lipids)
# Method: In studies requiring chronic treatment with compound, mice were purchased at 18 weeks of age following 13 weeks of HFD administration (D12459i; 60% of the calories from fat). Mice were maintained on HFD for the duration of the study in a 12:12-h light/dark cycle. […] To perform an oral glucose tolerance test (day 20 of dosing), mice were fasted at 6:00 AM to 12:00 PM and administered P.O. 1.5 g/kg at 12:00 PM. Glucose concentrations were determined using an AlphaTrak (Abbott Laboratories) at 0, 15, 30, 60, and 90 minutes. […] Hepatic lipids were measured by LC-MS/MS as previously described[42].
# [7] = target: Adrenergic receptor, alpha-1A (ADRA1A) (Homo sapiens, UniProt P35348); assay: Selectivity data (Table S1); type: binding
# [8] = target: Glucocorticoid receptor (GR) (Homo sapiens, UniProt P04150); assay: Selectivity data (Table S1); type: binding
# [9] = target: T1, NaDC3 (SLC13A3) (Homo sapiens, UniProt Q8WWT9); assay: Inhibition of citrate or succinate uptake in HEKNaDC3 cells; type: cell-based
# T1 construct: host or cells: HEK-293, transient (Fugene HD)
# T1 sequence (Q8WWT9 1-602): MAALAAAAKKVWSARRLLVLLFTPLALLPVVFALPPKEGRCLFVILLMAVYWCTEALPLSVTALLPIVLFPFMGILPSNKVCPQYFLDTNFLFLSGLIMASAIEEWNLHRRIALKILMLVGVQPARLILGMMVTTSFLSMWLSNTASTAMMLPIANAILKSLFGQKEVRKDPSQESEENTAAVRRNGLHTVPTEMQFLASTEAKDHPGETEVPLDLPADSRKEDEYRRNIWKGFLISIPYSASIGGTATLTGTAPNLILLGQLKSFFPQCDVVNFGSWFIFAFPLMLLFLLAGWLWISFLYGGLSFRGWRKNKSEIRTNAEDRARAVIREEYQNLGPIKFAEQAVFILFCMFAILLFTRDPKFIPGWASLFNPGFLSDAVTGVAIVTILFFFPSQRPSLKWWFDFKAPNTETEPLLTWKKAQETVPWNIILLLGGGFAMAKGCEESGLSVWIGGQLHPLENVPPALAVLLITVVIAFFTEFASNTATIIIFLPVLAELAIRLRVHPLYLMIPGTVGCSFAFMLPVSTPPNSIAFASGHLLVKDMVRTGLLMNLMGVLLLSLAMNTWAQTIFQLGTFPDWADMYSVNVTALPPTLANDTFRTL
# Text: Protocols to generate the stable cell line overexpressing NaCT or cell transfection with SLC13A2 or SLC13A3 can be found in the supporting information. HEK-293 cells stably transfected with the human sodium Citrate transporter SLC13A5 or transiently transfected with the human SLC13A2 or SLC13A3 transporter were removed from the flasks with dissociation buffer and re-suspended in an equal volume of growth media (DMEM, High Glucose supplemented with 10% heat inactivated fetal bovine serum and 500 μg/ml Geneticin). For the transient transfections, Geneticin was eliminated from the media. Cell suspensions were centrifuged at 1,000 rpm for approximately 5 minutes. Resulting cell pellets were re-suspended in growth media and placed in a 37 °C water bath for approximately 10 minutes prior to a final spin at 1,000 rpm. Following this spin the resulting cell pellets were re-suspended in assay buffer, 142 mM NaCl (or 142 mM choline chloride), 5 mM KCl, 1.2 mM MgSO4, 1.5 mM CaCl, 5 mM glucose and 25 mM HEPES pH 7.4. Cell suspensions were counted and the concentration adjusted as needed with assay buffer to 2e[6] viable cells /mL. 20 μL of cell suspension were added to 384-well cyotstar-T plates followed by the addition of 5 μL of 10× concentration of compound. Cells and compound were incubated at 37 °C for approximately 30 minutes prior to the addition of 25 μL of 300 μM citric acid (16 μM radiolabeled [^14C]-citric acid and 284 μM cold citric acid) to make a 150 μM final concentration of citric acid or 21 μM [^14C]-succinic acid. After substrate addition, the uptake of radioactivity was monitored on Perkin Elmer Microbeta plate reader. Data from reads between 45–90 minutes was used to assess the ability of test compounds to inhibit the uptake of citric or succinic acid. […]
# were plated, and incubated for 48 hours. Following the incubation, NaDC1 and NaDC3 assays were executed identical to the procedure for NaCT. […]
# The solution was heated to reflux until the total volume was reduced to ~25 mL. […]
# [10] = target: Serotonin receptor 2B (5-HT2B) (Homo sapiens, UniProt P41595); assay: Selectivity data (Table S1); type: binding
# [11] = target: Phosphodiesterase 3B (PDE3B) (Homo sapiens, UniProt Q13370); assay: Selectivity data (Table S1); type: biochemical
# [12] = Steady state intravenous infusion in rat, tissue distribution
# [13] = target: Cyclooxygenase 2 (prostaglandin endoperoxide synthase 2) (Homo sapiens, UniProt P35354); assay: Selectivity data (Table S1); type: biochemical
# [14] = target: Serotonin receptor 2A (5-HT2A) (Homo sapiens, UniProt P28223); assay: Selectivity data (Table S1); type: binding
# [15] = target: Serotonin receptor 3 (5-HT3) (Homo sapiens, UniProt P46098); assay: Selectivity data (Table S1); type: binding
# [16] = HFD mice, 250 mg/kg BID for 21 days
# Glucocorticoid receptor (GR), sequence (P04150 whole entry): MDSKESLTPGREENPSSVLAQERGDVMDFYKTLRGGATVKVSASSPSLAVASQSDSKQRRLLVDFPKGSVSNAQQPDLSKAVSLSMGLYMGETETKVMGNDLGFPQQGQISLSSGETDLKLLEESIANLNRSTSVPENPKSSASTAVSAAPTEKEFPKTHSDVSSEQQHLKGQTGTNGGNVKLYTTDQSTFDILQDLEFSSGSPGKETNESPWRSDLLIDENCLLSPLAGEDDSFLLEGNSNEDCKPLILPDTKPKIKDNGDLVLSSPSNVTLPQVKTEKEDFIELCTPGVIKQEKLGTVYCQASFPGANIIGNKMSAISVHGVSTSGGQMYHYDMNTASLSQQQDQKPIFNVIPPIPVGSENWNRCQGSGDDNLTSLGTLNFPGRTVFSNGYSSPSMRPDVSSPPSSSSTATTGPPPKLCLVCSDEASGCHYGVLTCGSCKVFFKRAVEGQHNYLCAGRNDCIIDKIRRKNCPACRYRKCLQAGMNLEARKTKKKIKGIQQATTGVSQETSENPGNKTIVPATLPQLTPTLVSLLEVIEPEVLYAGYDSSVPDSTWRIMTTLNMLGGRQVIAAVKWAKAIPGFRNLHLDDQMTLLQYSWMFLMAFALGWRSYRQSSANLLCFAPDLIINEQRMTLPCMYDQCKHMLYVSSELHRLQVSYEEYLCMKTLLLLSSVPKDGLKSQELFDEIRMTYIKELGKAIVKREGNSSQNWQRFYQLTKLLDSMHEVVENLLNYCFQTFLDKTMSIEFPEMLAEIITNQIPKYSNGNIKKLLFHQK
# Adrenergic receptor, alpha-1A (ADRA1A), sequence (P35348 whole entry): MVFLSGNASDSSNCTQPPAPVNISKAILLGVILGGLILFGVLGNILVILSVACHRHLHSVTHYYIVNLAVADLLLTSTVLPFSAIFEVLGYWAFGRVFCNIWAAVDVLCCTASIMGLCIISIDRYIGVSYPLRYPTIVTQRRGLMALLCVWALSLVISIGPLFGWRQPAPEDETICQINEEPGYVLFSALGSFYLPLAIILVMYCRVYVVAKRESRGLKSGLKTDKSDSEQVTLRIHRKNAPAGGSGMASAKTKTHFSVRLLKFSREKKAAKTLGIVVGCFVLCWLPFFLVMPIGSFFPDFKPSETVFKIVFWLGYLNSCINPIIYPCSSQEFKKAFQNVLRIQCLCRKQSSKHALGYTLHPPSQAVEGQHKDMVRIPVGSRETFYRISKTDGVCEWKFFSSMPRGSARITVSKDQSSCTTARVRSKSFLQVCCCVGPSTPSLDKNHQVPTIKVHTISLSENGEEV
# Cyclooxygenase 2 (prostaglandin endoperoxide synthase 2), sequence (P35354 18-604): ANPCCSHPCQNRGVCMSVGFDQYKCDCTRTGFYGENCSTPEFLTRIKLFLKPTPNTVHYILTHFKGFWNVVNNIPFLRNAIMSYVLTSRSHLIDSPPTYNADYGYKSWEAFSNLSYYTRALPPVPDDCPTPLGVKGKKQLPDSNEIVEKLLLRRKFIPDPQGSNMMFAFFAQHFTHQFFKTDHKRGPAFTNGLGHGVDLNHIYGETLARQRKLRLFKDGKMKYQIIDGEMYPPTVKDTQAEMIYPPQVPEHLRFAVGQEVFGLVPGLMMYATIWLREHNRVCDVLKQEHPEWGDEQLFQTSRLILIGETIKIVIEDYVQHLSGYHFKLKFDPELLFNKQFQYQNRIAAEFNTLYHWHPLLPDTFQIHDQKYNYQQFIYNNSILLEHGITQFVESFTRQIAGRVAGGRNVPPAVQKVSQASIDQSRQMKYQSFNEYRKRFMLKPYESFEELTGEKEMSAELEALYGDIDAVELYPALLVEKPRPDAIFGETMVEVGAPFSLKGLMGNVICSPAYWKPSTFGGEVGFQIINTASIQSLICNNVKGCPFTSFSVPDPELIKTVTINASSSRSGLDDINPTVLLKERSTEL
# CYP2C9, sequence (P11712 whole entry): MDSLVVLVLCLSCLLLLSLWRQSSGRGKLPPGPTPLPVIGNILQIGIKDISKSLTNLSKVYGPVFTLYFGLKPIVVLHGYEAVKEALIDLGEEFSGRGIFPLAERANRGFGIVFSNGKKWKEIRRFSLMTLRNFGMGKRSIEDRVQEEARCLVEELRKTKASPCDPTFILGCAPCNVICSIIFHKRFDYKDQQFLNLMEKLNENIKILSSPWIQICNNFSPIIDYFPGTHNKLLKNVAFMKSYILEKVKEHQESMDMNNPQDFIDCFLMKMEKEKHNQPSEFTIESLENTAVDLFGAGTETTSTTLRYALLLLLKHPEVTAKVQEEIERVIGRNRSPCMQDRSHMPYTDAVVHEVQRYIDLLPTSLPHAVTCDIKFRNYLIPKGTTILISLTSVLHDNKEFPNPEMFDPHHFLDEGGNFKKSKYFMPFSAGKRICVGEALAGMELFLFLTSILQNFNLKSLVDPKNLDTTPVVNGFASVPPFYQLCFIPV
# Cytochrome P450 2C9 (CYP2C9), sequence (P11712 whole entry): as above
# Phosphodiesterase 3B (PDE3B), sequence (Q13370 whole entry, the tested form may be a part): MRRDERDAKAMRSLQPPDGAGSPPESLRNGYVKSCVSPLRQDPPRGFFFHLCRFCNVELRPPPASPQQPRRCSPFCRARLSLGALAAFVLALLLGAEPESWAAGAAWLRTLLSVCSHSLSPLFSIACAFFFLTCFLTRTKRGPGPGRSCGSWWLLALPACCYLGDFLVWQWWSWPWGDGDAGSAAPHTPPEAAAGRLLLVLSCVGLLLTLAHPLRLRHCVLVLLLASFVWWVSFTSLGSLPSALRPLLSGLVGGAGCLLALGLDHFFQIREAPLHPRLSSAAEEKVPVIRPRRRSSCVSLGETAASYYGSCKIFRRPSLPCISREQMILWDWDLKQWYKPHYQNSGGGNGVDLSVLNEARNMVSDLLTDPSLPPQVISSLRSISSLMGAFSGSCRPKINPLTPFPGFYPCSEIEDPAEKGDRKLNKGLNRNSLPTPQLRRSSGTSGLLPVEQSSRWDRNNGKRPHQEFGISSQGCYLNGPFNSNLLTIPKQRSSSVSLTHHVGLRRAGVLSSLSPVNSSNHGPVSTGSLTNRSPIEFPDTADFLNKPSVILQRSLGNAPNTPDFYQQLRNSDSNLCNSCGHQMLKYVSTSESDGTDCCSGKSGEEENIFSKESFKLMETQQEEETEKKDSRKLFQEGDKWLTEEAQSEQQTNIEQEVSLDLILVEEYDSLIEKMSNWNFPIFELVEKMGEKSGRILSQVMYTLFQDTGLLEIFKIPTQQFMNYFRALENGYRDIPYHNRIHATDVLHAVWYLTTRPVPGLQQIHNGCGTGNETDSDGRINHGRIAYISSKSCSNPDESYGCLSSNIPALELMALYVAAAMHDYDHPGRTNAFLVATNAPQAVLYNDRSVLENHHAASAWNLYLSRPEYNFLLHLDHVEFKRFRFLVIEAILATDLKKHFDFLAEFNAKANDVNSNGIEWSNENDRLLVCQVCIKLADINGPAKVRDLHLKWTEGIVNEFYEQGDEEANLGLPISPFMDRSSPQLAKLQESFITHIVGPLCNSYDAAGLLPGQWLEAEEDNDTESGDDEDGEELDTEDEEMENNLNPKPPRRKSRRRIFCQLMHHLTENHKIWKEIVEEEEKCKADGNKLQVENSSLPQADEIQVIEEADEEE
# Serotonin receptor 2B (5-HT2B), sequence (P41595 whole entry): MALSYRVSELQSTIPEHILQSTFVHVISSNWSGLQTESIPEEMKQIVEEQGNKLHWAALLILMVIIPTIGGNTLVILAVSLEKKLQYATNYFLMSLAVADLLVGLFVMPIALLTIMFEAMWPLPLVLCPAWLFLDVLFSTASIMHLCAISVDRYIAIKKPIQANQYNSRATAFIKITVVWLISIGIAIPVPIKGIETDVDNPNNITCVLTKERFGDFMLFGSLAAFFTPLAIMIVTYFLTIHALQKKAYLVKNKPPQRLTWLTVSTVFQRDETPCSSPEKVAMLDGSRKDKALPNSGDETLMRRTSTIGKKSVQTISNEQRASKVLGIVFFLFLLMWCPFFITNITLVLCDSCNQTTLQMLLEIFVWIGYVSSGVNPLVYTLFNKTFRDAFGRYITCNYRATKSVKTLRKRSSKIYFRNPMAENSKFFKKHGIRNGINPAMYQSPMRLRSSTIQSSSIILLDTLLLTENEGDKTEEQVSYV
# Serotonin receptor 2A (5-HT2A), sequence (P28223 whole entry): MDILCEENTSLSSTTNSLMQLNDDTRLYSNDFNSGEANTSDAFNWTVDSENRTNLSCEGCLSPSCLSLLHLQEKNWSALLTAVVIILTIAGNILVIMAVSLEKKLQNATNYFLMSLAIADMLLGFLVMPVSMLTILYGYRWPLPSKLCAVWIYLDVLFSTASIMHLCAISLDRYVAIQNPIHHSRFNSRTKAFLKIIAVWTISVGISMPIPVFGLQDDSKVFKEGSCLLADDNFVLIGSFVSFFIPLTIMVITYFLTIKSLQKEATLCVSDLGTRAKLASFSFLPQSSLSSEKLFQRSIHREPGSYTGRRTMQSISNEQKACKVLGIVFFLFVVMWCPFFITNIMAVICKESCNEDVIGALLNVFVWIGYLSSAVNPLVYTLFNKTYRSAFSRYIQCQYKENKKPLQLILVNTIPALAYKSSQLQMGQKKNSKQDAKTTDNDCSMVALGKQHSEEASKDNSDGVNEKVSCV
smiles,measurement,setting,value
CC(C)(C)c1ccc(CC[C@@](O)(CC(=O)O)C(=O)O)cc1 [Compound 2],inhibition at 100 µM,[1],< 10%
same,IC50,[2],> 30 µM
same,interaction/inhibition of CYP2C9,[3],no significant interaction/inhibition
same,inhibition at 3 µM,[4],< 10%
same,"Kp uu at 1 h, 1 µM",[5],4.8 ± 0.5
same,plasma insulin concentrations area under the curve during OGTT,"[6]; HFD mice, 250 mg/kg BID",no differences
same,hepatic TAG and DAG,[6]; [16],trend for lower
same,hepatic acylcarnitine,[6]; [16],higher levels
same,β-hydroxybutyrate concentrations,[6]; [16],0.49 ± 0.06 mmol/L
same,glucose intolerance during OGTT,"[6]; HFD mice, 250 mg/kg BID, day 20",completely reversed
same,phenotype analogous to epileptic encephalopathy,[6]; during the in vivo experiments,no phenotype analogous to epileptic encephalopathy was observed
same,inhibition at 100 µM,[7],< 10%
same,inhibition at 100 µM,[8],< 10%
same,"inhibition of citrate or succinate uptake, NaDC3",[9]; HEK-293-derived system overexpressing NaDC3,No measurable inhibition
same,IC50,[9]; compound 4: mean of 2 replicates,> 100 µM
same,inhibition at 100 µM,[10],< 10%
same,inhibition at 100 µM,[11],< 10%
same,brain penetration,[12]; steady state intravenous infusion,minimal brain penetration; also recorded: restricted in the brain
same,uptake in liver and kidney compared to plasma,[12]; steady state intravenous infusion 0.27mg/kg/hour,significant uptake of the compound in the liver and kidney
same,inhibition at 100 µM,[13],22%
same,inhibition at 100 µM,[14],< 10%
same,inhibition at 100 µM,[15],< 10%
